From ChEMBL document CHEMBL5030507, “Structure-Based Design of a Selective Class I Histone Deacetylase (HDAC) Near-Infrared (NIR) Probe for Epigenetic Regulation Detection in Triple-Negative Breast Cancer (TNBC)” (J Med Chem, 2021) come the findings set out here.

One data set deals with T1, Histone deacetylase 8 (Homo sapiens, UniProt Q9BY41).
T1 sequence (Q9BY41 whole entry): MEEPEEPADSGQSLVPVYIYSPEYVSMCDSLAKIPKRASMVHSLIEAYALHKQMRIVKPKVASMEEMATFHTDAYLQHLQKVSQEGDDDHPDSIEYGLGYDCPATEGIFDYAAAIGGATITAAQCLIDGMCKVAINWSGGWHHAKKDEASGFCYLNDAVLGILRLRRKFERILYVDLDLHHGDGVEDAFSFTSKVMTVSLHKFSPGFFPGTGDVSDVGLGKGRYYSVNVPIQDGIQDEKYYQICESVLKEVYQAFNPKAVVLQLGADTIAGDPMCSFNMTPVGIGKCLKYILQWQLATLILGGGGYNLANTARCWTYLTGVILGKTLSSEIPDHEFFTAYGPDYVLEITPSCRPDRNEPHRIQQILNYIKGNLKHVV
The experiment in a line: Inhibition of recombinant human full length C-terminal His-tagged HDAC8 expressed in baculovirus infected Sf9 insect cells using fluorometric substrate measured after 60 mins by FRET assay.

A short description of data set [1]: Cytotoxicity against human WI-38 cells assessed as cell growth inhibition incubated for 72 hrs by CCK8 assay. The data set is classed as cell-based.
For a further data set, the target named is Histone deacetylase 1 (Homo sapiens, UniProt Q13547). The experiment in a line: Inhibition of recombinant human C-terminal FLAG/His-tagged HDAC1 (1 to 482 residues) expressed in Sf9 insect cells using fluorometric substrate measured after 60 mins by FRET assay.
Sequence of Histone deacetylase 1 (Q13547 whole entry, the tested form may be a part): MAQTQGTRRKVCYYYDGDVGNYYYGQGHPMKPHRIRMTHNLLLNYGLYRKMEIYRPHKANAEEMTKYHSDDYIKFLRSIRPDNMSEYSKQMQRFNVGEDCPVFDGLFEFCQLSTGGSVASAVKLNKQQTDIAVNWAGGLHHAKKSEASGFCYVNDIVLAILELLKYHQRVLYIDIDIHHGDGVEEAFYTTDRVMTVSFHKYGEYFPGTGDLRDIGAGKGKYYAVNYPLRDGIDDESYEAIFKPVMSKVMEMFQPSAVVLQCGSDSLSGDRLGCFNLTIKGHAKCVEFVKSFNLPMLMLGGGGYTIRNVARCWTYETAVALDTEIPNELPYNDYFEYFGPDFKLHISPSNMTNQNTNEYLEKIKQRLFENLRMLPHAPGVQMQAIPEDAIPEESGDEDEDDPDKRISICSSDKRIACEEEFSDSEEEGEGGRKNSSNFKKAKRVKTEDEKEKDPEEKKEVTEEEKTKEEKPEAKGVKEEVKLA
A short description of data set [2]: Selectivity index, ratio of GI50 for cytotoxicity against human WI-38 cells to GI50 for antiproliferative activity against triple-negative human MDA-MB-231 cells. The data set is classed as toxicity, cell-based. Particulars: WI-38 cells versus MDA-MB-231 cells, read-out: RatioGI50.
The next data set deals with Histone deacetylase 4 (Homo sapiens, UniProt P56524). The experiment in a line: Inhibition of recombinant human N-terminal GST-tagged/C-terminal His-tagged HDAC4 (627 to 1084 residues) expressed in baculovirus infected Sf9 insect cells using fluorogenic substrate measured after 60 mins by FRET assay.
Sequence of Histone deacetylase 4 (P56524 whole entry, the tested form may be a part): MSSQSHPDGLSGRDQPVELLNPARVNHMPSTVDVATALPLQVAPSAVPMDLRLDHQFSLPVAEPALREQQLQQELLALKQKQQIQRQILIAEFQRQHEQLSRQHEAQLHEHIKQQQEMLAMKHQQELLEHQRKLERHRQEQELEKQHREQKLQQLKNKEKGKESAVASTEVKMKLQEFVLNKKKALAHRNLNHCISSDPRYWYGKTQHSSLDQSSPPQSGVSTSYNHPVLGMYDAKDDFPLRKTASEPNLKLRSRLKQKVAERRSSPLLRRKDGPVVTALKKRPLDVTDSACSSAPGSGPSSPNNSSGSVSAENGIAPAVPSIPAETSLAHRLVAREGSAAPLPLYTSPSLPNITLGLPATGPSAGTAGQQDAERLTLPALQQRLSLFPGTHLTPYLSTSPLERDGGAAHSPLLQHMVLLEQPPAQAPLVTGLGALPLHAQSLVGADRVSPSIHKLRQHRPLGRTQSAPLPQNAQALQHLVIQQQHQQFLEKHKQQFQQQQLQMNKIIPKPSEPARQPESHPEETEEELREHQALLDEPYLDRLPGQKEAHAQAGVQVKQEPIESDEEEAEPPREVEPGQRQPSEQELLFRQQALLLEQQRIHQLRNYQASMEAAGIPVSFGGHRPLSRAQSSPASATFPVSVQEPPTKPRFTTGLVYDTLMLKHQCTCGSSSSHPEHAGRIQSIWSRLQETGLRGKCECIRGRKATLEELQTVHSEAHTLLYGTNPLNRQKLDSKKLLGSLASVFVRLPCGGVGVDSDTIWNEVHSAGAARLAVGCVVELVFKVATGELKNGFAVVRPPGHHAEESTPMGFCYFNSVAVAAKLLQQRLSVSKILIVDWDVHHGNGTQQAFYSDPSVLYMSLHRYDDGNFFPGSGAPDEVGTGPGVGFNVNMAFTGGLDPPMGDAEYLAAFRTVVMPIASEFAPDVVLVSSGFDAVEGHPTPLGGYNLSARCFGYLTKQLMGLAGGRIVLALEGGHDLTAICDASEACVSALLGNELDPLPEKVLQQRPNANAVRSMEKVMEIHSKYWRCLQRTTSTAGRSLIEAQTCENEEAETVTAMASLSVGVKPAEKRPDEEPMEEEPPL
The target of another data set is Histone deacetylase 2 (Homo sapiens, UniProt Q92769). The experiment in a line: biochemical. Format: cell-based, Sf9.
Sequence of Histone deacetylase 2 (Q92769 whole entry): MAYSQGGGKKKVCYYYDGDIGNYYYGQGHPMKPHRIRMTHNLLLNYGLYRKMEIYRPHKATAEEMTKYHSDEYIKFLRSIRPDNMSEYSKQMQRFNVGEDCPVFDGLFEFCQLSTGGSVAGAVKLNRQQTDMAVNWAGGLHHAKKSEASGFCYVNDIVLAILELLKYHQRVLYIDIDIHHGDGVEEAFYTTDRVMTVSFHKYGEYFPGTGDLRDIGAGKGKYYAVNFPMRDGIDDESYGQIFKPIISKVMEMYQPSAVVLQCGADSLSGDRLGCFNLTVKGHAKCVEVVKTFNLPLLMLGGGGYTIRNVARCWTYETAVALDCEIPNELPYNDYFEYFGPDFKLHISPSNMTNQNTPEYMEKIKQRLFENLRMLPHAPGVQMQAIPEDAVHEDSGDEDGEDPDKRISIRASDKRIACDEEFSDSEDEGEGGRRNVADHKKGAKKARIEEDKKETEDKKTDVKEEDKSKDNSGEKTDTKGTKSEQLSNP
In data set [3] the target is T2, Protein deacetylase HDAC6 (Homo sapiens, UniProt Q9UBN7).
T2 sequence (Q9UBN7 whole entry): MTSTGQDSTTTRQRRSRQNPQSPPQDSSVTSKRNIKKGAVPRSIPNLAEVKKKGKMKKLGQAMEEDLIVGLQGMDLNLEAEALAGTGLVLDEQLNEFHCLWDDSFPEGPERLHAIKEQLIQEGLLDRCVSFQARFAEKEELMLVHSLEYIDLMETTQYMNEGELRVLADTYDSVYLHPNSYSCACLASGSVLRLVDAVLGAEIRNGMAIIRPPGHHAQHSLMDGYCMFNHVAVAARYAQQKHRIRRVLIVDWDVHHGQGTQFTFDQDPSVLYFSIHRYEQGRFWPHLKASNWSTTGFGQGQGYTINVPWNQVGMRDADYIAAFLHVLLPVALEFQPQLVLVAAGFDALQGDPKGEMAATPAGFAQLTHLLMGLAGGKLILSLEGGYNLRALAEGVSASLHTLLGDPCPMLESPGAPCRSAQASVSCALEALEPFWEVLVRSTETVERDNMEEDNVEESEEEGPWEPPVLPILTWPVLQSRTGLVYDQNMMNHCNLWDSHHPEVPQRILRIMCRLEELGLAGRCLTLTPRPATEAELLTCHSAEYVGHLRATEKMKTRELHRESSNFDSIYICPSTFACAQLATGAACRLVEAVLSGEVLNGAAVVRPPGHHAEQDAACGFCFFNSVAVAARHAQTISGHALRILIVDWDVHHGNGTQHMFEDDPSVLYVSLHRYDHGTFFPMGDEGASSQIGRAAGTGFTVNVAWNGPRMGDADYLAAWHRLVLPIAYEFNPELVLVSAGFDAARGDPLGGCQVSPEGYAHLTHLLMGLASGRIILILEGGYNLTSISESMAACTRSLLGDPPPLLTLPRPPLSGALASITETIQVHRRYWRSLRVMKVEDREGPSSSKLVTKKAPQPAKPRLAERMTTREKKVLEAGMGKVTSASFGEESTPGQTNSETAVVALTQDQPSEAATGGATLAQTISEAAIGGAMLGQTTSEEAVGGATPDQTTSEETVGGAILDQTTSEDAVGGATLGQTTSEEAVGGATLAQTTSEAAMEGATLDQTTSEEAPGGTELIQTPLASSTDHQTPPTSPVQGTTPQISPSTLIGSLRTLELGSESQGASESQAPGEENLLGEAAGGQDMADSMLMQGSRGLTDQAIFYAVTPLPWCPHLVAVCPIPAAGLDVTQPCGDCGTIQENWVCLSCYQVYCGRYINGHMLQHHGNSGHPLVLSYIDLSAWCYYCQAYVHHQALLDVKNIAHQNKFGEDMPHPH
Description: Inhibition of recombinant human full length N-terminal GST-tagged HDAC6 expressed in Sf9 cells using fluorogenic substrate measured after 60 mins by FRET assay.

The next data set concerns the target Histone deacetylase 9 (Homo sapiens, UniProt Q9UKV0). The experiment in a line: Inhibition of recombinant human C-terminal His-tagged HDAC9 (604 to 1066 residues) expressed in baculovirus infected Sf9 insect cells using fluorogenic substrate measured after 60 mins by FRET assay.
Data set [4] deals with T3, Polyamine deacetylase HDAC10 (Homo sapiens, UniProt Q969S8).
T3 sequence (Q969S8 whole entry): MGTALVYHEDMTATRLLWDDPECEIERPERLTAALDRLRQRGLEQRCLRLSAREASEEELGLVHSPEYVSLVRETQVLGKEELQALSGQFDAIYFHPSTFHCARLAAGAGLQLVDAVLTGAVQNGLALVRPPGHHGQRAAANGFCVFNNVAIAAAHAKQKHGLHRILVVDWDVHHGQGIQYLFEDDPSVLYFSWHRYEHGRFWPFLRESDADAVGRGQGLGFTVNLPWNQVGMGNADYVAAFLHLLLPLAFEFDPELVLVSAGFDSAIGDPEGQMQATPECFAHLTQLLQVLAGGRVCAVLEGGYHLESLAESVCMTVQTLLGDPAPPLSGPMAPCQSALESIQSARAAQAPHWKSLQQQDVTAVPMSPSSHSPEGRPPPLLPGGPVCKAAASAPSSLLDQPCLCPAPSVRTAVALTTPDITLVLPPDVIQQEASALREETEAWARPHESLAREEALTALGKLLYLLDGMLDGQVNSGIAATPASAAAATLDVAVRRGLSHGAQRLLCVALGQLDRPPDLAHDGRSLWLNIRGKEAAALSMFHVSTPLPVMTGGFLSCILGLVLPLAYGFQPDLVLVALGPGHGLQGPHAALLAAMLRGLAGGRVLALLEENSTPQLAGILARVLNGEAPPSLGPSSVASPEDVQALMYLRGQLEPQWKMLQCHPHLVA
Description: Inhibition of recombinant human N-terminal FLAG tagged HDAC10 (2 to 631 residues) expressed in baculovirus infected Sf9 insect cells using fluorogenic substrate measured after 60 mins by FRET assay.

The test system of a further data set is MDA-MB-231. The experiment in a line: Antiproliferative activity against triple-negative human MDA-MB-231 cells assessed as cell growth inhibition incubated for 72 hrs by CCK8 assay. Format: functional. (Formazan colour is commonly taken as a measure of viable cells.)

Some results are limits rather than exact numbers.

Sequence of Histone deacetylase 9 (Q9UKV0 whole entry, the tested form may be a part): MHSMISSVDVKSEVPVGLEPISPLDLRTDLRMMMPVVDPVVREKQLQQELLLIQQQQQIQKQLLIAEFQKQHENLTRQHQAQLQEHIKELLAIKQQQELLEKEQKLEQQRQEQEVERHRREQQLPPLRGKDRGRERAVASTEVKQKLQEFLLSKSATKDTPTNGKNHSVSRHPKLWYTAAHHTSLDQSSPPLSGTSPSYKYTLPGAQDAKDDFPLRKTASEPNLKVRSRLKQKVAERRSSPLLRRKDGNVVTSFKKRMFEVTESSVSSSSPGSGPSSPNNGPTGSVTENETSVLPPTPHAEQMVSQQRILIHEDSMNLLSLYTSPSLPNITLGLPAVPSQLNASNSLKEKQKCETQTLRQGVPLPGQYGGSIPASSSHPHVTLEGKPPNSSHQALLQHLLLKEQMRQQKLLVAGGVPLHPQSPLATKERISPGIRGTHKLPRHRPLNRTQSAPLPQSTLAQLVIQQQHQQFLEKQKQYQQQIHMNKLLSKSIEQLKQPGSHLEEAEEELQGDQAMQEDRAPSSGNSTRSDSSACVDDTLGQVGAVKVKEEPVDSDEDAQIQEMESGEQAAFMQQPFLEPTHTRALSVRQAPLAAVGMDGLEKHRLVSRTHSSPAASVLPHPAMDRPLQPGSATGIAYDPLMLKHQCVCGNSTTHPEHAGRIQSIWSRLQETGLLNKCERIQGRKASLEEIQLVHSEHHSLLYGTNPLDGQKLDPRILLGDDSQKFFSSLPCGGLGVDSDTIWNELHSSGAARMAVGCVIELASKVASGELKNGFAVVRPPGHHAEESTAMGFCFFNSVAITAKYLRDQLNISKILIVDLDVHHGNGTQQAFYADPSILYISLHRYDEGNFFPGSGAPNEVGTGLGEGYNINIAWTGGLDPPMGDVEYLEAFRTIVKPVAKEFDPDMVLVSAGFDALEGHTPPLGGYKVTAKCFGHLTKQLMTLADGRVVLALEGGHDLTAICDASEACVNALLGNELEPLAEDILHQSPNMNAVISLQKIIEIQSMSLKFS
Description for Histone deacetylase 2: Inhibition of recombinant human full length C-terminal His- tagged HDAC2 (1 to 488 residues) expressed in Sf9 insect cells using fluorometric substrate measured after 60 mins by FRET assay

Usually IC50 stands for the concentration needed to halve the response being measured. By GI50 is commonly meant the concentration that inhibits growth by half. Take `C/C=C1\NC(=O)c2csc(n2)CNC(=O)C[C@@H](/C=C/CCSSCCCCCCC)OC(=O)[C@H](CCCCN)NC1=O`: the IC50 at Histone deacetylase 8 is > 10 µM; at Histone deacetylase 1 it was 0.0058 µM; on Histone deacetylase 4 it was > 10 µM; at Histone deacetylase 2, 0.0075 µM; in data set [3], > 10 µM; on Histone deacetylase 9, > 10 µM. In addition, in data set [4], the IC50 is > 10 µM. For the same molecule, in data set [1], the GI50 at 72 h was 2.32 µM. For the same molecule, the selectivity ratio in [2] was determined as 194. For the same molecule, the GI50 in the data set with MDA-MB-231 amounted to 0.0119 µM.
